US8410078B2, “Composition and methods to treat cardiac diseases” (University of Connecticut, priority 2006, dated 2013)

Columns and labels:
intact CSQ mouse hearts = experiment: Cardiac function in intact CSQ mouse heart preparation
Method: Following injection of heparin via tail vein (500 U/kg, iv) and anesthetization with nembutal (125 mg/kg for rats and 150 mg/kg for mice, ip) intraperitoneally, heart with all major vessels and lungs attached were excised. The aorta was then cannulated with a 20-gauge catheter, positioned about 2 mm above the coronary ostia. For the Langendorff method, a water-filled latex balloon (size #3) was inserted into the lumen of the left ventricle via the left atrium. The distal end of the balloon attached catheter was connected to a pressure transducer for measurement of intraventricular pressure and ±dP/dt. The balloon was inflated to a constantly held diastolic pressure of 5-7 mmHg. […]
For the working heart model, a column of KHS buffer produced a constant hydrostatic pressure of 65 mmHg (for rat) or 55 mmHg (for mice). […] Aortic flow was the amount of perfusate exiting the aortic cannula measured in […]. […]
The pressure recordings were channeled from amplifiers which had been pre-calibrated by a transducer simulator/calibrator (Ken Scientific Corp., Litchfield, Conn.). […] Data were analyzed by computer software (WorkBench for Windows+, Kent Scientific Corp) designed for an IBM-compatible computer (Dell). […] Data obtained with and without drug were analyzed by paired t test for possible statistically significant differences. […]

cardiac P2X receptor = experiment: Whole-cell voltage clamp of P2 agonist-induced current in WT ventricular myocytes; assay type: cell-based, mouse
Text: Mice displaying the CSQ model of severe cardiomyopathy and heart failure were bred and maintained by methods known in the art. The CSQ transgenic (TG) mice were originally provided by Dr. Larry Jones (Krannert Institute of Cardiology, Indiana University School of Medicine, Indiana), and developed hypertrophy followed by a lethal heart failure phenotype with death near the age of 3 months. Ventricular myocytes were obtained from 3-month old wild type (WT) and CSQ mice of either sex (26 WT, 47 TG) by an enzymatic dissociation procedure. Briefly, the hearts were rapidly excised from mice that had been anesthetized with pentobarbital and treated with 1000 Units of heparin. The aorta was cannulated and the heart perfused in a Langendorff apparatus with oxygenated (95% O2/5% CO2) Ca^2+-free solution (37° C.) for 5 minutes at a rate of 2.5 ml/min. The solution composition was: 126 mM NaCl, 4.4 mM KCl, 1.0 mM MgCl2, 18 mM NaHCO3, 11 mM Glucose, 4 mM HEPES, and 3 mM BDM (2,3-butanedione monoxime), (pH 7.3 adjusted with NaOH). Thereafter, the perfusing solution was changed to that containing 25 μM CaCl2 and liberase (70 μg/ml, Roche Molecular Biochemicals, Inc.) for 8-10 minutes. Cells were sedimented by gravity for 10-15 minutes and the pellet was resuspended in 200 μM Ca^2+-containing Tyrode's solution (containing 3 mM BDM), allowed to settle for 30 minutes at room temperature, and suspended with Tyrode's solution containing: 135 mM NaCl, 5.4 mM KCl, 1.0 mM CaCl2, 1.0 mM MgCl2, 10 mM HEPES and 10 mM dextrose (pH 7.4 adjusted with NaOH). The experiments were carried out at room temperature (22-23° C.) and were completed within 4-6 hours after myocyte isolation.
The whole cell patch-clamp technique was used for these experiments. Electrodes were prepared from borosilicate glass pipettes (1.2 mm i.d.) with a two step pulling procedure and filled with pipette solution. The pipette was connected via an Ag—AgCl wire to the head stage of an amplifier (List EPC-7, Medical Systems, Greenvale, N.Y.) controlled by a computer and Axon pClamp™ software. For voltage clamp experiments, the electrodes were filled with a solution containing: 135 mM cesium aspartate, 5 mM NaCl, 5 mM Mg2ATP, 10 mM HEPES, and 10 mM EGTA (pH 7.3 adjusted with CsOH) with or without 2 mM GDPβS. Electrode resistances were 2-4 MΩ. As soon as electrical contact was established, the superfusion medium was changed to a modified Tyrode's solution (5.4 mM KCl was omitted and 10 mM CsCl and 5 μM ouabain were added to Tyrode's solution to block K^+ currents and the Na/K pump current, respectively). In quantifying the P2 agonist-induced current, the Tyrode's solution contained the indicated concentration of each agent. In studying the effect of a P2 receptor antagonist, both agonist and antagonist were co-applied at the indicated concentrations. The voltage clamp protocol used was a ramp voltage protocol from −100 mV holding potential to +50 mV. The ramp protocol was applied to cells at 20 s intervals for 1 minute. Three current traces from −100 mV to 50 mV were averaged to construct the I-V relationship.

`Nc1nc(Cl)nc2c1ncn2C1[C@H]2C[C@@]2(COP(=O)(O)O)[C@@H](O)[C@H]1O` (stereo partly drawn) [MRS2339, (1′S,2′R,3′S,4′R,5′S)-4-(6-amino-2-chloro-9H-purin-9-yl)-1-[phosphoryloxymethyl]bicyclo[3.1.0]hexane-2,3-diol] was tested, and the “+dP/dt” value (intact CSQ mouse hearts) was “increased”, the “Effect of GDPβS on MRS2339-evoked current density” value (cardiac P2X receptor; at +50 mV) was “no difference” and the “MRS2339-evoked current density in the absence of GDPβS” value (cardiac P2X receptor; at −100 mV) was −0.73±0.15 pA/pF. The “MRS2339-evoked current density with GDPβS” value (cardiac P2X receptor; at −100 mV) was −0.66±0.10 pA/pF.
